Columns and labels:
Assay in all cases: drug sensitivity score (DSS) from 5-dose viability curve (DSS (area-based score, 0 = no response)); higher = more sensitive (stronger viability inhibition); extreme values may be limits of the assay
[1] = system: MDCK wild-type - doxycycline; conditions: doxycycline: none; 72 h
Outline: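 Parental MDCK cells, grown without doxycycline, were seeded at 2000 cells/well into 384-well plates pre-spotted with an oncology library of 528 drugs at five doses (1-10,000 nM). After 72 h at 37 °C, CellTiter-Glo luminescence was read. Viability was scaled per plate between vehicle and positive controls, and drug sensitivity scores were derived from dose-response curve fits in the Breeze pipeline.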

[2] = system: MDCK p60AmotL2-inducible + doxycycline (p60AmotL2 expressing); conditions: doxycycline: 10 ng/mL; 72 h
Outline: (§1)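 After 72 h at 37 °C on 384-well plates pre-spotted with 528 oncology drugs at five doses (1-10,000 nM), parental and doxycycline-inducible MDCK cells were assessed; both lines had been given 10 ng/mL doxycycline in the medium before seeding at 2000 cells/well. Viability was taken from CellTiter-Glo luminescence scaled per plate to vehicle and positive controls, and drug sensitivity scores were derived from dose-response fits in the Breeze pipeline.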

[3] = system: MDCK wild-type + doxycycline; conditions: doxycycline: 10 ng/mL; 72 h
Outline: as §1

SMILES	drug sensitivity score [1]	drug sensitivity score [2]	drug sensitivity score [3]
CN(C)CCOc1ccc(/C(=C(/CCCl)c2ccccc2)c2ccccc2)cc1 [Toremifene]	0	4.6	3.6
N#Cc1ccc(C(c2ccc(C#N)cc2)n2cncn2)cc1 [Letrozole]	0	0	0
C[C@H](Nc1ncnc2nc[nH]c12)c1cc2cccc(Cl)c2c(=O)n1-c1ccccc1 [Duvelisib]	0	0	0
CC1(C)C(C(=O)Nc2ccc(S(=O)(=O)c3ccc(NC(=O)C4C(C)(C)C4(C)C)cc3)cc2)C1(C)C [BRD7116]	0	0	0
CC[C@H](CO)Nc1nc(NCc2ccccc2)c2ncn(C(C)C)c2n1 [Seliciclib]	0	2.4	1.2
Cn1ncc(Cl)c1-c1cc(C(=O)N[C@H](CN)Cc2cccc(F)c2)sc1Cl [Afuresertib]	0	0	0
CCS(=O)(=O)N1CC(CC#N)(n2cc(-c3ncnc4[nH]ccc34)cn2)C1 [Baricitinib]	0	0	0
CO[C@@H](C)Cn1c(=O)n(C)c2cnc3ccc(-c4cncc(C(C)(C)O)c4)cc3c21	8.2	12.8	9.1
CCCc1cc(C)[nH]c(=O)c1CNC(=O)c1cc(-c2ccnc(N3CCN(C)CC3)c2)cc2c1cnn2C(C)C [GSK343]	0	0	0
CC(C)n1nc(-c2ccc3oc(N)nc3c2)c2c(N)ncnc21 [Sapanisertib]	8.1	13.4	9.8
CC(C)C[C@H](NC(=O)[C@@H](COC(C)(C)C)NC(=O)[C@H](Cc1ccc(O)cc1)NC(=O)[C@H](CO)NC(=O)[C@H](Cc1c[nH]c2ccccc12)NC(=O)[C@H](Cc1cnc[nH]1)NC(=O)[C@@H]1CCC(=O)N1)C(=O)N[C@@H](CCCNC(=N)N)C(=O)N1CCC[C@H]1C(=O)NNC(N)=O [Goserelin]	0	0	0
O=C(Nc1cnn2ccc(N3CCC[C@@H]3c3cc(F)ccc3F)nc12)N1CC[C@H](O)C1 [Larotrectinib]	0	0	0
COc1cccc2c1C(=O)c1c(O)c3c(c(O)c1C2=O)C[C@@](O)(C(C)=O)C[C@@H]3O[C@H]1C[C@H](N)[C@H](O)[C@H](C)O1 [Daunorubicin]	9.5	11.6	10.3
O[C@H]1CC[C@H](Nc2ncc3nc(Nc4c(F)cc(F)cc4F)n([C@H]4CCOC4)c3n2)CC1 [Tanzisertib]	0	0.9	0.1
Clc1ccccc1C(c1ccccc1)(c1ccccc1)n1cccn1 [TRAM-34]	0	0	0
CCCN(CCC)C(=O)C1=Cc2ccc(-c3ccc(C(=O)N4CCCC4)cc3)cc2N=C(N)C1 [Motolimod]	0	2.5	0.8
CNC(=O)[C@@H](NC(=O)[C@H](CC(C)C)[C@H](O)C(=O)NO)C(C)(C)C [Marimastat]	0	3.5	0.1
Nc1nc2[nH]cnc2c(=S)[nH]1 [Thioguanine]	1.1	1.5	3.8
Cn1ncc(Cl)c1-c1cc(C(=O)N[C@H](CN)Cc2ccc(F)c(F)c2)oc1Cl [Uprosertib]	0	0	0
C=CC(=O)Nc1cc2c(Nc3ccc(F)c(Cl)c3)ncnc2cc1OCCCN1CCOCC1 [Canertinib]	7.9	15.2	9.6
CN1CCN(C(=O)c2ccc3cc(CCNc4ncnc5ccc(C#N)cc45)ccc3c2)CC1 [Senexin B]	0	0.6	0.1
CCc1c2c(nc3ccc(O)cc13)-c1cc3c(c(=O)n1C2)COC(=O)[C@]3(O)CC [SN-38]	21.1	24.8	23.3
NC[C@@](O)(c1ccc(Cl)cc1)c1ccc(-c2cn[nH]c2)cc1	0	0	0
CN1CCc2c(c3ccccc3n2Cc2ccc(C(=O)NO)cc2)C1 [Tubastatin A]	0	0.7	0
CO[C@H]1C[C@@H]2CC[C@@H](C)[C@@](O)(O2)C(=O)C(=O)N2CCCC[C@H]2C(=O)O[C@H]([C@H](C)C[C@@H]2CC[C@@H](O)[C@H](OC)C2)CC(=O)[C@H](C)/C=C(\C)[C@@H](O)[C@@H](OC)C(=O)[C@H](C)C[C@H](C)/C=C/C=C/C=C/1C [Sirolimus]	1.9	7.6	2.3
CC[C@]12C=CCN3CC[C@@]4(c5cc([C@@]6(C(=O)OC)C[C@@H]7C[C@@H](C(C)(F)F)CN(Cc8c6[nH]c6ccccc86)C7)c(OC)cc5N(C)[C@H]4[C@@](O)(C(=O)OC)[C@@H]1OC(C)=O)[C@@H]32 [Vinflunine]	4.3	3.3	3.7
